Measured values reported in ChEMBL document CHEMBL3774310, “Discovery of antitumor anthra[2,3-b]furan-3-carboxamides: Optimization of synthesis and evaluation of antitumor properties” (Eur J Med Chem, 2016).

What was measured:
Calf thymus DNA = settings: Bos taurus
Description: Binding affinity to calf thymus DNA assessed as binding constant by Scatchard plot analysis

cells = settings: Homo sapiens, HCT-116, 72 h
Description: Antiproliferative activity against human HCT116 cells after 72 hrs by MTT assay

P388 [1] = experiment: Antitumor activity against mouse P388 cells transplanted in DBA2/BDF1 mouse assessed as mean life span at 50 mg/kg, ip dosed daily for 5 days relative to control; assay type: functional
Mus musculus [2] = experiment: Toxicity in DBA2/BDF1 mouse transplanted with mouse P388 cells assessed as spleen mass at 50 mg/kg, ip dosed daily for 5 days (reference value: 142 mg); assay type: organism-based; settings: in vivo, 120 h
Mus musculus [3] = experiment: Toxicity in DBA2/BDF1 mouse transplanted with mouse P388 cells at 5 to 40 mg/kg, ip dosed daily for 5 days; assay type: organism-based; settings: in vivo, 120 h
Mus musculus [4] = experiment: Toxicity in mouse P388 cells transplanted DBA2/BDF1 mouse assessed as mouse mortality at 50 mg/kg, ip dosed daily for 5 days; assay type: organism-based; settings: in vivo, 120 h
P388 [5] = experiment: Antitumor activity against mouse P388 cells transplanted in DBA2/BDF1 mouse assessed as mean life span at 40 mg/kg, ip dosed daily for 5 days (reference value: 9.6 +/- 0.5 day); assay type: functional
Mus musculus [6] = experiment: Toxicity in DBA2/BDF1 mouse transplanted with mouse P388 cells assessed as reduction in spleen mass at 50 mg/kg, ip dosed daily for 5 days relative to control; assay type: organism-based; design: scale not given: the % may be the effect or the level left; settings: in vivo, 120 h
P388 [7] = experiment: Antitumor activity against mouse P388 cells transplanted in DBA2/BDF1 mouse assessed as mean life span at 10 mg/kg, ip dosed daily for 5 days relative to control; assay type: functional
[8] = target: Dual serine/threonine and tyrosine protein kinase (Homo sapiens, UniProt Q6XUX3); experiment: Inhibition of human RIPK5 by flashplate based radiometric 33pan-quinase assay
P388 [9] = experiment: Antitumor activity against mouse P388 cells transplanted in DBA2/BDF1 mouse assessed as mean life span at 5 mg/kg, ip dosed daily for 5 days (reference value: 9.6 +/- 0.5 day); assay type: functional
P388 [10] = experiment: Antitumor activity against mouse P388 cells transplanted in DBA2/BDF1 mouse assessed as mean life span at 30 mg/kg, ip dosed daily for 5 days (reference value: 9.6 to 9.7 day); assay type: functional

Dual serine/threonine and tyrosine protein kinase, sequence (Q6XUX3 whole entry): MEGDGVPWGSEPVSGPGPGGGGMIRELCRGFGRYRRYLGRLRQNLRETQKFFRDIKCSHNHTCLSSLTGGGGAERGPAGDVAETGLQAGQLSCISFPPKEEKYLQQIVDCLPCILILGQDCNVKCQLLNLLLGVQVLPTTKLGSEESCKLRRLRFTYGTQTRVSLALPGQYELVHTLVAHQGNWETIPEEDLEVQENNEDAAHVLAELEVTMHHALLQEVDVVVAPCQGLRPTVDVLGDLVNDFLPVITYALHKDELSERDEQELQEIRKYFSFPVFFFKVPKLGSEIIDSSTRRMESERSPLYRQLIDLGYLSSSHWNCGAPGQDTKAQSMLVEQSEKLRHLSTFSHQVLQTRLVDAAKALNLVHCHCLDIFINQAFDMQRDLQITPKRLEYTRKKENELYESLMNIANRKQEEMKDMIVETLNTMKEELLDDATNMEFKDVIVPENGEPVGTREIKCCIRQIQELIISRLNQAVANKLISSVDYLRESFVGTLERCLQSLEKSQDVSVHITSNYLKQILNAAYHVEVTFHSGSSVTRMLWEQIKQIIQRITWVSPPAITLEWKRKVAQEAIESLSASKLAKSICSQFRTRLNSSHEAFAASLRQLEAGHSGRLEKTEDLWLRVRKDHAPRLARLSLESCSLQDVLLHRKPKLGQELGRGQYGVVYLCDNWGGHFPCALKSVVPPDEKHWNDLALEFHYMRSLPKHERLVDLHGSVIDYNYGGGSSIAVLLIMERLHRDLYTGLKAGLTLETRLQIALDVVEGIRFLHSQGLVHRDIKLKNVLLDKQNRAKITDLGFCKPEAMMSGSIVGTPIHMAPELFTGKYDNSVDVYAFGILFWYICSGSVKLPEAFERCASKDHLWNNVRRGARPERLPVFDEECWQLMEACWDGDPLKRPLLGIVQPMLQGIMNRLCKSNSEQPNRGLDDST

| SMILES | Ka (Calf thymus DNA) [×10⁵ /M] | IC50 (cells) [nM] | Activity (P388 [1]) [%] | Activity (Mus musculus [2]) [mg] | Activity (Mus musculus [3]) | Activity (Mus musculus [4]) | Activity (P388 [5]) [days] | Activity (Mus musculus [6]) [%] | Activity (P388 [7]) [%] | IC50 [8] [nM] | Activity (P388 [9]) [days] | Activity (P388 [10]) [days] |
| --- | --- | --- | --- | --- | --- | --- | --- | --- | --- | --- | --- | --- |
| CS(=O)(=O)O.Cc1oc2c(O)c3c(c(O)c2c1C(=O)N1CC[C@@H](N)C1)C(=O)c1ccccc1C3=O | 5 | 1200 | 178 |  |  |  |  |  |  |  |  |  |
| CS(=O)(=O)O.Cc1oc2c(O)c3c(c(O)c2c1C(=O)N1CC[C@H](N)C1)C(=O)c1ccccc1C3=O |  |  |  | 87 | Non-toxic | Toxic | 25.2 | 40 | 170 | < 5000 | 13.4 | 20.8 |
